Results from US10309967B2, “Methods of diagnosing bipolar disorders and screening for therapeutic compounds” (National University Corporation Chiba University, priority 2015, dated 2019).
Entries after “also recorded” stand apart in the source; their conditions may differ.

Test system: CSF samples from rats
Experiment: Metabolomics (CE-TOFMS) of CSF samples from rats chronically treated with Li or VPA
Format: in vivo, rat
Conditions: chronic (4-weeks) treatment via drinking water
Protocol: Data from human samples are presented as mean±standard deviation (SD). Statistical analysis was performed using SAS software version 9.3 (SAS Institute, Cary, N.C.). Analyses of metabolites between control and BD groups were performed using unpaired t-tests and Wilcoxon rank sum tests. A logistic regression model with a stepwise selection method was used for the multivariate analysis and multiple regression analysis (consistent with description in Allen et al., Technometrics. 1974; 16(1):125-127; and Miller et al., Chapman and Hall. 1974, which are incorporated in their entireties by reference herein). […] The Mann-Whitney U test (two-tailed) was used to evaluate changes in expression levels of the ACO and IDH genes between control and BD groups. Rat data are presented as mean±SD. To determine the effects of drug treatment, a one-way ANOVA, followed by the post hoc Dunnett's test was used. P values of less than 0.05 for two-tailed tests were considered statistically significant.
The volume (50 μL) of CSF sample was added to 450 μL it methanol containing internal standards, and mixed. Then, 450 μL chloroform and 200 μL Milli-Q water was added to the mixture. After mixture, the mixture was centrifuged at 2,300×g and 4° C. for 5 min. Subsequently, 800 μL of upper aqueous layer was centrifugally filtered through a Millipore 5-kDa cutoff filter at 9,100×g and 4° C. for 120 min to remove proteins. The filtrate was centrifugally concentrated and re-suspended in 25 μL of Milli-Q water for analysis.
Cationic compounds were measured in the positive mode of CE-TOFMS (Agilent CE-TOFMS system Machine No. 3, Fused silica capillary, i.d. 50 μM×80 cm), and anionic compounds were measured in the positive and negative modes of CE-MS/MS (Agilent CE system and Agilent 6400 TripleQuad LC/MS Machine No. QqQ01, Fused silica capillary, i.d. 50 μM×80 cm), as reported previously (Soga et al., Anal. Chem. 2000; 72(6):1236-1241; Soga et al., Anal Chem. 2002; 74(10):2233-2239; Soga et al., J. Proteome Res. 2003; 2(5):488-494, which are incorporated in their entireties by reference herein). Peaks detected by CE-TOFMS and CE-MS/MS were extracted using automatic integration software (MasterHands, Keio University, Tsuruoka, Japan) (Sugimoto et al., Metabolomics. 2009; 6(1):78-95, which is incorporated in its entirety by reference herein) and MassHunter Quantitative Analysis B.04.00, Agilent Technologies, Santa Clara, Calif., USA) in order to obtain peak information including m/z, migration time (MT), and peak area. The peaks were annotated with putative metabolites from the HMT metabolite database based on their MTs in CE and m/z values determined by TOFMS. The tolerance range for the peak annotation was configured at ±0.5 min for MT and ±10 ppm for m/z. In addition, concentrations of metabolites were calculated by normalizing the peak area of each metabolite with respect to the area of the internal standard and by using standard curves, which were obtained by three-point calibrations.
The CSF concentrations of 116 major metabolites from several pathways were measured. […] Male Sprague-Dawley rats (Japan SLC Inc., Shizuoka, Japan) aged 6 weeks old were used in this study. All rats were housed in groups of three per cage in a room maintained at 23° C.±2° C. and 60±10% humidity with a 12/12 hour light/dark cycle (lights on at 7:00 a.m.). The rats were given free access to food and water. Animal care and use were conducted in accordance with the Institutional Guidelines for Animal Care and Use of Otsuka Pharmaceutical Co., Ltd. (Tokushima, Japan). […] The drinking water was replaced twice a week. […] All animals were decapitated on day 30 after CSF sampling, and brain regions (prefrontal cortex, and hippocampus) were dissected rapidly on ice. Metabolomic analyses of rat CSF samples were performed as described herein.

O=C([O-])[O-].[Li+].[Li+] [Li, lithium carbonate]
2-Oxoisovaleric acid Mean (rat CSF): 4.3 µM | 3-Phosphoglyceric acid Mean (rat CSF): 0.3 µM | ADP-ribose Mean (rat CSF): 0.010 µM | Adenosine Mean (rat CSF): 0.2 µM | Alanin (Ala) Mean (rat CSF): 54 µM | Arginine (Arg) Mean (rat CSF): 31 µM | Argininosuccinic acid Mean (rat CSF): 1.0 µM | Asparagic acid (Asp) Mean (rat CSF): 1.8 µM | Asparagine (Asn) Mean (rat CSF): 4.8 µM | Carnosine Mean (rat CSF): 0.5 µM | Choline Mean (rat CSF): 7.5 µM | Citric acid Mean (rat CSF): 57 µM | Citrulline Mean (rat CSF): 3.8 µM | Creatine Mean (rat CSF): 60 µM | Creatinine Mean (rat CSF): 6.0 µM | Dihydroxyacetone phosphate Mean (rat CSF): 0.6 µM | Fructose 6-phosphate Mean (rat CSF): 0.2 µM | Glucose 6-phosphate Mean (rat CSF): 0.5 µM | Glutamic acid (Glu) Mean (rat CSF): 2.0 µM | Glutamine (Gln) Mean (rat CSF): 534 µM | Glutathione (GSSG) Mean (rat CSF): 1.1 µM | Glyceraldehyde 3-phosphate Mean (rat CSF): 0.9 µM | Glycerol 3-phosphate Mean (rat CSF): 7.2 µM | Glycine (Gly) Mean (rat CSF): 5.5 µM | Histidine (His) Mean (rat CSF): 7.1 µM | Homoserine Mean (rat CSF): 0.10 µM | Hydroxyproline Mean (rat CSF): 1.1 µM | Hypoxanthine Mean (rat CSF): 1.2 µM | Inosine monophosphate (IMP) Mean (rat CSF): 0.10 µM | Isocitric acid Mean (rat CSF): 2.0 µM | Isoleucine (Ile) Mean (rat CSF): 1.5 µM | Lactic acid Mean (rat CSF): 2,438 μM | Leucine (Leu) Mean (rat CSF): 5.1 µM | Lysine (Lys) Mean (rat CSF): 71 µM | Malic acid Mean (rat CSF): 2.2 µM | Methionine (Met) Mean (rat CSF): 4.4 µM | Mevalonic acid Mean (rat CSF): 0.003 µM | N-Carbamoylaspartic acid Mean (rat CSF): 0.04 µM | Nicotinamide Adenine dinucleotide (NAD^+) Mean (rat CSF): 0.8 µM | Nicotinamide Adenine dinucleotide phophate (NADP^+) Mean (rat CSF): 0.09 µM | Ornithine Mean (rat CSF): 2.3 µM | Phenylalanine (Phe) Mean (rat CSF): 3.1 µM | Phosphocreatine Mean (rat CSF): 6.9 µM | Phosphoenolpyruvic acid Mean (rat CSF): 0.2 µM | Pyruvic acid Mean (rat CSF): 29 µM | Ribose 5-phosphate Mean (rat CSF): 0.07 µM | Ribulose 5-phosphate Mean (rat CSF): 0.10 µM | S-Adenosylmethionine Mean (rat CSF): 0.5 µM | Serine (Ser) Mean (rat CSF): 82 µM | Succinic acid Mean (rat CSF): 9.0 µM | Threonine (Thr) Mean (rat CSF): 54 µM | Tryptophan (Trp) Mean (rat CSF): 1.2 µM | Tyrosine (Tyr) Mean (rat CSF): 5.4 µM | UDP-glucose Mean (rat CSF): 0.3 µM | Urea Mean (rat CSF): 4,332 μM | Uric acid Mean (rat CSF): 1.8 µM | Valine (Val) Mean (rat CSF): 2.3 µM | Xanthine Mean (rat CSF): 1.6 µM | cyclic AMP (cAMP) Mean (rat CSF): 0.007 µM | cyclic GMP (cGMP) Mean (rat CSF): 0.003 µM | CSF levels of argininosuccinic acid (rats, vs control): significantly increased | CSF levels of isocitrate (rats, vs control): not altered; also recorded: did not alter | CSF levels of succinic acid (rats, vs control): significantly increased

CCCC(CCC)C(=O)[O-].[Na+] [VPA, valproic acid sodium salt]
2-Oxoisovaleric acid Mean (rat CSF): 4.3 µM | 3-Phosphoglyceric acid Mean (rat CSF): 0.3 µM | ADP-ribose Mean (rat CSF): 0.01 µM | Adenosine Mean (rat CSF): 0.2 µM | Alanin (Ala) Mean (rat CSF): 50 µM | Arginine (Arg) Mean (rat CSF): 27 µM | Argininosuccinic acid Mean (rat CSF): 0.7 µM | Asparagic acid (Asp) Mean (rat CSF): 1.6 µM | Asparagine (Asn) Mean (rat CSF): 4.0 µM | Carnosine Mean (rat CSF): 0.5 µM | Choline Mean (rat CSF): 7.8 µM | Citric acid Mean (rat CSF): 44 µM | Citrulline Mean (rat CSF): 3.6 µM | Creatine Mean (rat CSF): 56 µM | Creatinine Mean (rat CSF): 6.2 µM | Dihydroxyacetone phosphate Mean (rat CSF): 0.8 µM | Fructose 6-phosphate Mean (rat CSF): 0.2 µM | Glucose 6-phosphate Mean (rat CSF): 0.5 µM | Glutamic acid (Glu) Mean (rat CSF): 1.6 µM | Glutamine (Gln) Mean (rat CSF): 598 µM | Glutathione (GSSG) Mean (rat CSF): 0.9 µM | Glyceraldehyde 3-phosphate Mean (rat CSF): 1.1 µM | Glycerol 3-phosphate Mean (rat CSF): 7.0 µM | Glycine (Gly) Mean (rat CSF): 6.5 µM | Histidine (His) Mean (rat CSF): 7.1 µM | Homoserine Mean (rat CSF): 0.09 µM | Hydroxyproline Mean (rat CSF): 1.1 µM | Hypoxanthine Mean (rat CSF): 1.4 µM | Inosine monophosphate (IMP) Mean (rat CSF): 0.1 µM | Isocitric acid Mean (rat CSF): 1.6 µM | Isoleucine (Ile) Mean (rat CSF): 1.2 µM | Lactic acid Mean (rat CSF): 2,361 μM | Leucine (Leu) Mean (rat CSF): 4.5 µM | Lysine (Lys) Mean (rat CSF): 85 µM | Malic acid Mean (rat CSF): 0.7 µM | Methionine (Met) Mean (rat CSF): 3.3 µM | N-Carbamoylaspartic acid Mean (rat CSF): 0.02 µM | Nicotinamide Adenine dinucleotide (NAD^+) Mean (rat CSF): 0.8 µM | Nicotinamide Adenine dinucleotide phophate (NADP^+) Mean (rat CSF): 0.09 µM | Ornithine Mean (rat CSF): 2.2 µM | Phenylalanine (Phe) Mean (rat CSF): 2.9 µM | Phosphocreatine Mean (rat CSF): 6.8 µM | Phosphoenolpyruvic acid Mean (rat CSF): 0.15 µM | Pyruvic acid Mean (rat CSF): 21 µM | Ribose 5-phosphate Mean (rat CSF): 0.06 µM | Ribulose 5-phosphate Mean (rat CSF): 0.08 µM | S-Adenosylmethionine Mean (rat CSF): 0.5 µM | Serine (Ser) Mean (rat CSF): 83 µM | Succinic acid Mean (rat CSF): 7.4 µM | Threonine (Thr) Mean (rat CSF): 41 µM | Tryptophan (Trp) Mean (rat CSF): 1.0 µM | Tyrosine (Tyr) Mean (rat CSF): 5.2 µM | UDP-glucose Mean (rat CSF): 0.3 µM | Urea Mean (rat CSF): 3,714 μM | Uric acid Mean (rat CSF): 1.8 µM | Valine (Val) Mean (rat CSF): 2.1 µM | Xanthine Mean (rat CSF): 1.5 µM | cyclic AMP (cAMP) Mean (rat CSF): 0.006 µM | cyclic GMP (cGMP) Mean (rat CSF): 0.003 µM | CSF levels of arginine (rats, vs control): significantly altered | CSF levels of argininosuccinic acid (rats, vs control): significantly altered | CSF levels of glutamine (rats, vs control): significantly altered | CSF levels of threonine (rats, vs control): significantly altered | CSF levels of tryptophan (rats, vs control): significantly altered | CSF levels of isocitrate (rats, vs control, sodium salt): not altered; also recorded: did not alter
